The record followed here is patent publication US8202885B2, “Bridged six-membered ring compounds” (Actelion Pharmaceuticals Ltd., priority 2007, dated 2012).

For assay [1], the system named is human Cav3.1 Cav3.2 or Cav3.3 channel. Put plainly: In vitro assay T channel (FLIPR calcium fluorescence). The settings on record: HEK293 cells expressing human Cav3.1, Cav3.2 or Cav3.3; 10 mM Ca2+-induced fluo-4 fluorescence; determined up to 10 μM; read-out: T channel antagonistic activity IC50. Format: cell-based. The procedure, abridged:
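IC50 (nM) is the antagonist concentration halving the area under the fluorescence peak evoked by 10 mM Ca2+, relative to vehicle, with testing up to 10 μM. Fluo-4-loaded HEK293 cells expressing each human Cav3 subtype received compound 3 min before Ca2+ addition (TEA-based buffer, pH 7.2); signal monitored 8 min at 2 s intervals.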

The subject of a further assay is isolated mouse hearts. In words: Effect on isolated hearts according to the Langendorff method (Lgdff). On the procedure:
Effect on Isolated Hearts According to the Langendorff Method (Lgdff)
The compounds were tested for their potential to reduce blood pressure and their effect on the contractility of the heart muscle. EC50 values on isolated mouse hearts were determined according to Literature (Doring H J., The isolated perfused heart according to Langendorff technique—function—application, Physiol. Bohemoslov. 1990, 39(6), 481-504; Kligfield P, Horner H, Brachfeld N., A model of graded ischemia in the isolated perfused rat heart, J. Appl. Physiol. 1976 June, 40(6), 1004-8).
51 example compounds have been measured using the procedure described above for the Langendorff experiment. The measured EC50 values were in the range of 4 to 669 nM with an average of 37 nM.

Another assay has as its target T1, human Cav1.2 channel (Homo sapiens, UniProt Q13936).
T1 construct: expressed in transfected cells; host or cells: HEK293
In words: In vitro assay L channel (FLIPR calcium fluorescence). The format is cell-based. The settings on record: HEK293 cells expressing human Cav1.2 with β-2a and α2δ-1; 20 mM KCl-induced fluo-4 fluorescence; determined up to 10 μM; read-out: L channel antagonistic activity (IC50). Here is the method:
The L channel antagonistic activity (IC50 values) of the compounds of formula (I) is determined in accordance with the following experimental method.
Human embryonic kidney (HEK293) cells expressing the human Cav1.2 channel in addition to the auxiliary subunits β-2a and α2δ-1, are grown in culture medium (DMEM containing 10% heat-inactivated fetal calf serum (FCS), 100 U/ml penicillin, 100 μg/ml streptomycin, 100 μg/ml G418, 40 μg/ml zeocin and 100 μg/ml hygromycin). The cells are seeded at 20.000 cells/well into 384-well black clear bottom sterile plates (poly-L-lysine-coated, Becton Dickinson). The seeded plates are incubated overnight at 37° C. in 5% CO2. The KCl solution is prepared as 80 mM stock solution in assay buffer (HBSS containing 0.1% BSA, 20 mM HEPES, 0.375 g/l NaHCO3, adjusted to pH 7.4 with NaOH) for use in the assay at a final concentration of 20 mM. Antagonists are prepared as 10 mM stock solutions in DMSO, then diluted in 384 w plates first in DMSO, then in assay buffer to obtain 3× stocks. On the day of the assay, 25 μl of staining buffer (HBSS containing 20 mM HEPES, 0.375 g/l NaHCO3, and 3 μM of the fluorescent calcium indicator fluo-4 AM (1 mM stock solution in DMSO, containing 10% pluronic) is added to each well of the seeded plate. The 384-well cell-plates are incubated for 60 min at 37° C. in 5% CO2 followed by washing with 2×50 μl per well using assay buffer leaving 50 μl/well of this buffer for equilibration at room temperature (30-60 min). Within the Fluorescent Imaging Plate Reader (FLIPR, Molecular Devices), antagonists are added to the plate in a volume of 25 μl/well, incubated for 3 min and finally 25 μl/well of KCl solution is added for cellular depolarization. Fluorescence is measured for each well at 2 second intervals for 8 minutes, and the area under the curve of each fluorescence peak is compared to the area of the fluorescence peak induced by 20 mM KCl with vehicle in place of antagonist. […]

The structures appear in SMILES notation. A value given as a limit tells only on which side of the number the result lay.

By IC50 is commonly meant the concentration needed to halve the response being measured. As usually defined, the EC50 is the concentration that produces a half-maximal response.

T1 sequence (Q13936 whole entry): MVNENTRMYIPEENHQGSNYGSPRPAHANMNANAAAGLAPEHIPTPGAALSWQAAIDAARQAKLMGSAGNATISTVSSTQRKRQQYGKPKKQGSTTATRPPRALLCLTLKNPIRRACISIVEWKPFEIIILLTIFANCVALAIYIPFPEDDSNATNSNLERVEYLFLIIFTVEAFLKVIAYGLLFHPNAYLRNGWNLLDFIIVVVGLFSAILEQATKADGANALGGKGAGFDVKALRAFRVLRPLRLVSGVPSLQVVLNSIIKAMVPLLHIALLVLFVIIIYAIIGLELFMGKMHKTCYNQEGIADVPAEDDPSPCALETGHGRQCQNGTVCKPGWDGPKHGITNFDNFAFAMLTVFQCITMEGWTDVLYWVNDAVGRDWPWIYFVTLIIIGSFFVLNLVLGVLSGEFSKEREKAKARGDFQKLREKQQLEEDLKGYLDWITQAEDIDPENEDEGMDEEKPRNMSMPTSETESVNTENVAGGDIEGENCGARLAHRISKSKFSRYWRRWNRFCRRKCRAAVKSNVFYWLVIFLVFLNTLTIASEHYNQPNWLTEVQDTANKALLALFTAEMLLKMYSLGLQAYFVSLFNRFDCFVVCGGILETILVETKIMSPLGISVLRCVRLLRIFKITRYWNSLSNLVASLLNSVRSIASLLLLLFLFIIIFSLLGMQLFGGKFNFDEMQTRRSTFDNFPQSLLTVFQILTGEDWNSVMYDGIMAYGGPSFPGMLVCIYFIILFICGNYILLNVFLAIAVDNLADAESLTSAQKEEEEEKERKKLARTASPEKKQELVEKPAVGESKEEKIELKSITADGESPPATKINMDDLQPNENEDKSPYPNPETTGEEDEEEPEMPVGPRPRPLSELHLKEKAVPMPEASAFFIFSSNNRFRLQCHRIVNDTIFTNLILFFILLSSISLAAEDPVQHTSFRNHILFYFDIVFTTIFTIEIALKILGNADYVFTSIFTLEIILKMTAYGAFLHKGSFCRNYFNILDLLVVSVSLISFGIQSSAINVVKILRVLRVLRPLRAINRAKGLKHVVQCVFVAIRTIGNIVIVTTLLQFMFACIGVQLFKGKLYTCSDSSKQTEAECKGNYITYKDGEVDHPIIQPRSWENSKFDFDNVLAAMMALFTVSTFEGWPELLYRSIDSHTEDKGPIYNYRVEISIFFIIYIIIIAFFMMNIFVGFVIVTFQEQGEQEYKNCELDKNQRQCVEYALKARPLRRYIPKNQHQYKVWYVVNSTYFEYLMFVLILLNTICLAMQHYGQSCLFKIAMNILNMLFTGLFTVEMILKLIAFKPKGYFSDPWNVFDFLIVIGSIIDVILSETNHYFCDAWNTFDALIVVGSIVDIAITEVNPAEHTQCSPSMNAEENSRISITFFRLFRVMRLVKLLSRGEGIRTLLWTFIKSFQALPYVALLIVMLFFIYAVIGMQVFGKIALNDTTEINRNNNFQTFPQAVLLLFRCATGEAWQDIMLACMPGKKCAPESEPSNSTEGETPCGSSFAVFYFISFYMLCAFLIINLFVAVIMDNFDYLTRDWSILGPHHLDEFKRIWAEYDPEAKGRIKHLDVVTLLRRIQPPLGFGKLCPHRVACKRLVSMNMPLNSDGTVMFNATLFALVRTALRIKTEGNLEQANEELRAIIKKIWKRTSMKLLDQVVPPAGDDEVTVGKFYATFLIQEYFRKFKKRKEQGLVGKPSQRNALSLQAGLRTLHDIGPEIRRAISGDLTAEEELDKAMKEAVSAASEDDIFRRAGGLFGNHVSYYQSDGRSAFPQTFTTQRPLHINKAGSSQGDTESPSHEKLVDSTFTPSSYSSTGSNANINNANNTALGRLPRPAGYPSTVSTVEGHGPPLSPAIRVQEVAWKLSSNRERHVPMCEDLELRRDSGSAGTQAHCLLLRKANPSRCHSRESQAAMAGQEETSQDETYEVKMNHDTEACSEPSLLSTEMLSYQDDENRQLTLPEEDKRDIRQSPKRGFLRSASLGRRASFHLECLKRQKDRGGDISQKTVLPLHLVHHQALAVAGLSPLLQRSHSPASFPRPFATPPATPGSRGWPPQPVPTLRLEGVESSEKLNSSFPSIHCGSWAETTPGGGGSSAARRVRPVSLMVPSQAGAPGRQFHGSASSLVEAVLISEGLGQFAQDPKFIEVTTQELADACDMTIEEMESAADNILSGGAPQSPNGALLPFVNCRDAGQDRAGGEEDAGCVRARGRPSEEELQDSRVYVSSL

Consider `COc1cccc(C2=C[C@H]3CC[C@@H]2C[C@]3(CCN(C)CCCc2nc3ccccc3[nH]2)OC(=O)C(C)C)c1` (relative stereo) [Example 2A, rac-Isobutyric acid (1R*,2R*,4R*)-2-(2-{[3-(1H-benzoimidazol-2-yl)-propyl]-methyl-amino}-ethyl)-5-(3-methoxy-phenyl)-bicyclo[2.2.2]oct-5-en-2-yl ester], for which the IC50 in assay [1] worked out at 2.31 µM. The molecule further displayed a concentration for a half-maximal effect (EC50) with isolated mouse hearts of 0.015 µM.
With `CC1=C(c2ccccc2)[C@H]2CC[C@@H]1C[C@]2(CCN(C)CCCc1nc2ccccc2[nH]1)OC(=O)C(C)C` (relative stereo) [Example 17A, rac-Isobutyric acid (1R*,2R*,4R*)-2-(2-{[3-(1H-benzoimidazol-2-yl)-propyl]-methyl-amino}-ethyl)-5-methyl-6-phenyl-bicyclo[2.2.2]oct-5-en-2-yl ester], in assay [1], the IC50 is 1.37 µM. The response in the assay on isolated mouse hearts was half-maximal at 0.012 µM (EC50).
As to `CN(CCCc1nc2ccccc2[nH]1)CC[C@]1(O)C[C@@H]2C=C[C@H]1CC2` (racemic) [Example 75, rac-(1R*,2R*,4R*)-2-(2-{[3-(1H-Benzoimidazol-2-yl)-propyl]-methyl-amino}-ethyl)-bicyclo[2.2.2]oct-5-en-2-ol], the IC50 (in assay [1]; on human Cav1.2 channel) was above 10 µM in each case.
`CC(C)C(=O)O[C@@]1(CCN(C)CCCc2nc3ccccc3[nH]2)C[C@H]2CC[C@@H]1C=C2c1cccs1` (relative stereo) [Example 21A, rac-Isobutyric acid (1R*,2R*,4R*)-2-(2-{[3-(1H-benzoimidazol-2-yl)-propyl]-methyl-amino}-ethyl)-5-thiophen-2-yl-bicyclo[2.2.2]oct-5-en-2-yl ester]: the IC50 in assay [1] is 2.42 µM. Moreover, the response in the assay with isolated mouse hearts was half-maximal at 0.01 µM (EC50).
`COc1ccc(OC)c2[nH]c(CCCN(C)CC[C@]3(OC(=O)C(C)C)C[C@H]4CC[C@@H]3C=C4c3ccccc3)nc12` (relative stereo) [Example 61A, rac-Isobutyric acid (1R*,2R*,4R*)-2-(2-{[3-(4,7-dimethoxy-1H-benzoimidazol-2-yl)-propyl]-methyl-amino}-ethyl)-5-phenyl-bicyclo[2.2.2]oct-5-en-2-yl ester]: the IC50 in assay [1] stood at 0.571 µM. This molecule registered an EC50 in the assay with isolated mouse hearts of 0.005 µM.
Turning to `CN(CCCc1nc2ccccc2[nH]1)CC[C@]1(O)C[C@H]2CC[C@@H]1C=C2c1ncco1` (racemic) [Example 25, rac-(1R*,2R*,4R*)-2-(2-{[3-(1H-Benzoimidazol-2-yl)-propyl]-methyl-amino}-ethyl)-5-oxazol-2-yl-bicyclo[2.2.2]oct-5-en-2-ol], the IC50 (in assay [1]; on human Cav1.2 channel) was above 10 µM each time.
`CC(C)C(=O)O[C@@]1(CCN(C)CCCc2cccnc2)C[C@H]2CC[C@@H]1C=C2c1ccccc1` (relative stereo) [Example 46A, rac-Isobutyric acid (1R*,2R*,4R*)-2-{2-[methyl-(3-pyridin-3-yl-propyl)-amino]-ethyl}-5-phenyl-bicyclo[2.2.2]oct-5-en-2-yl ester]: the IC50 in assay [1] is 2.56 µM. Further, the EC50 in the assay on isolated mouse hearts stood at 0.009 µM.
Take `COc1ccc(Cl)c2[nH]c(CCCN(C)CC[C@]3(OC(=O)C(C)C)C[C@H]4CC[C@@H]3C=C4c3ccccc3)nc12` (relative stereo) [Example 58A, rac-Isobutyric acid (1R*,2R*,4R*)-2-(2-{[3-(7-chloro-4-methoxy-1H-benzoimidazol-2-yl)-propyl]-methyl-amino}-ethyl)-5-phenyl-bicyclo[2.2.2]oct-5-en-2-yl ester]: the IC50 in assay [1] amounted to 0.762 µM.
The same measure, in the same setting: the result for `CC1=C(c2ccccc2)[C@H]2CC[C@@H]1C[C@@]2(CCN(C)CCCc1nc2ccccc2[nH]1)OC(=O)C(C)C` (relative stereo) [Example 17C, rac-Isobutyric acid (1R*,2S*,4R*)-2-(2-{[3-(1H-benzoimidazol-2-yl)-propyl]-methyl-amino}-ethyl)-5-methyl-6-phenyl-bicyclo[2.2.2]oct-5-en-2-yl ester] reads 0.55 µM.
With `Cc1cccc(C)c1C1=C[C@H]2CC[C@@H]1C[C@@]2(O)CCN(C)CCCc1nc2ccccc2[nH]1` (relative stereo) [Example 3, rac-(1R*,2R*,4R*)-2-(2-{[3-(1H-Benzoimidazol-2-yl)-propyl]-methyl-amino}-ethyl)-5-(2,6-dimethyl-phenyl)-bicyclo[2.2.2]oct-5-en-2-ol], the 50% inhibitory concentration (IC50) in assay [1] was found to be 6.63 µM.
In the case of `CN(CCc1nc2ccccc2[nH]1)CC[C@]1(O)C[C@H]2CC[C@@H]1C=C2c1ccccc1` (relative stereo) [Example 13, rac-(1R*,2R*,4R*)-2-(2-{[2-(1H-Benzoimidazol-2-yl)-ethyl]-methyl-amino}-ethyl)-5-phenyl-bicyclo[2.2.2]oct-5-en-2-ol], the IC50 in assay [1] turned out to be 2.73 µM.
With `CC(=O)Nc1cccc2[nH]c(CCCN(C)CC[C@]3(OC(=O)C(C)C)C[C@H]4CC[C@@H]3C=C4c3ccccc3)nc12` (relative stereo) [Example 56A, rac-Isobutyric acid (1R*,2R*,4R*)-2-(2-{[3-(4-acetylamino-1H-benzoimidazol-2-yl)-propyl]-methyl-amino}-ethyl)-5-phenyl-bicyclo[2.2.2]oct-5-en-2-yl ester], the IC50 in assay [1] was found to be 2.52 µM.
Turning to `COC(=O)c1ccc2[nH]c(CCCN(C)CC[C@]3(OC(=O)C(C)C)C[C@H]4CC[C@@H]3C=C4c3ccccc3)nc2c1` (relative stereo) [Example 20A, rac-2-(3-{[2-((1R*,2R*,4R*)-2-Isobutyryloxy-5-phenyl-bicyclo[2.2.2]oct-5-en-2-yl)-ethyl]-methyl-amino}-propyl)-1H-benzoimidazole-5-carboxylic acid methyl ester], in assay [1], the IC50 came out at 4.57 µM.
In the case of `COc1cccc2[nH]c(CCCN(C)CC[C@]3(OC(=O)CC(F)(F)F)C[C@H]4CC[C@@H]3C=C4c3ccccc3)nc12` (relative stereo) [Example 26C, rac-3,3,3-Trifluoro-propionic acid (1R*,2R*,4R*)-2-(2-{[3-(4-methoxy-1H-benzoimidazol-2-yl)-propyl]-methyl-amino}-ethyl)-5-phenyl-bicyclo[2.2.2]oct-5-en-2-yl ester], the IC50 in assay [1] came to 4.64 µM. Moreover, the EC50 in the assay on isolated mouse hearts turned out to be 0.004 µM.
For `CN(CCCc1nc2ccccc2[nH]1)CC[C@@]1(O)C[C@@H]2CC[C@H]1CN2c1ccccc1` [Example 74, (1S,4S,5R)-5-(2-{[3-(1H-Benzoimidazol-2-yl)-propyl]-methyl-amino}-ethyl)-2-phenyl-2-aza-bicyclo[2.2.2]octan-5-ol], the 50% inhibitory concentration (IC50) in assay [1] worked out at 6.07 µM.
On the same count and under the same terms, to `COCC(C)(COC)C(=O)N(C)CCCN(C)CC[C@]1(O)C[C@H]2CC[C@@H]1C=C2c1ccccc1` (relative stereo) [Example 51, rac-N-(3-{[2-((1R*,2R*,4R*)-2-Hydroxy-5-phenyl-bicyclo[2.2.2]oct-5-en-2-yl)-ethyl]-methyl-amino}-propyl)-3-methoxy-2-methoxymethyl-2,N-dimethyl-propionamide] belongs above 10 µM; to `COC(=O)c1ccc2[nH]c(CCCN(C)CC[C@]3(O)C[C@H]4CC[C@@H]3C=C4c3ccccc3)nc2c1` (relative stereo) [Example 20, rac-2-(3-{[2-((1R*,2R*,4R*)-2-Hydroxy-5-phenyl-bicyclo[2.2.2]oct-5-en-2-yl)-ethyl]-methyl-amino}-propyl)-1H-benzoimidazole-5-carboxylic acid methyl ester], above 10 µM.
